For data set [1], the target named is BACE1 (Homo sapiens, UniProt P56817). Kind of data set: Determination of BACE1-inhibiting activity (fluorescence substrate cleavage). The following applies: compound 100 μM; BACE1 1.0 U/ml; substrate 750 nM Rh-EVNLDAEFK-Quencher; sodium acetate buffer pH 4.5; 25° C., 60 minutes; read-out: Inhibitory rate (%). It counts as biochemical. The protocol:
Determination of BACE1-Inhibiting Activity
A sodium acetate analytical buffer solution ([…], pH 4.5) containing BACE1 (1.0 U/ml), a substrate of BACE1 (750 nM Rh-EVNLDAEFK-Quencher), a compound of the present invention (100 μM) was incubated at 25° C. for 60 minutes. The fluorescence intensity was determined by using a TECANGENios fluorimeter with a slit width of 10 nm, an excitation wavelength of 535 nm and an emission wavelength of 585 nm. Inhibitory rate(%)={1−[(S−S0)/(C−C0)]}*100%
C: the fluorescence intensity of the control (BACE1, substrate and analytical buffer solution) as determined after incubating for 60 minutes.
C0: the fluorescence intensity of the control (BACE1, substrate and analytical buffer solution) as determined after incubating for 0 minute.
S: the fluorescence intensity of the sample (BACE1, substrate, compound of the present invention and analytical buffer solution) as determined after incubating for 60 minutes.
S0: the fluorescence intensity of the sample (BACE1, substrate, compound of the present invention and analytical buffer solution) as determined after incubating for 0 minute.

From patent US8268884B2, “Derivatives of substituted tartaric acid and usage for preparing beta-secretase inhibitors” (Institute of Pharmacology and Toxicology Academy of …, priority 2006, dated 2012) come the findings set out here.

The melting point is the temperature, or range, at which the solid turns liquid.

The structures appear in SMILES notation.

Chain of BACE1 (P56817 46-501): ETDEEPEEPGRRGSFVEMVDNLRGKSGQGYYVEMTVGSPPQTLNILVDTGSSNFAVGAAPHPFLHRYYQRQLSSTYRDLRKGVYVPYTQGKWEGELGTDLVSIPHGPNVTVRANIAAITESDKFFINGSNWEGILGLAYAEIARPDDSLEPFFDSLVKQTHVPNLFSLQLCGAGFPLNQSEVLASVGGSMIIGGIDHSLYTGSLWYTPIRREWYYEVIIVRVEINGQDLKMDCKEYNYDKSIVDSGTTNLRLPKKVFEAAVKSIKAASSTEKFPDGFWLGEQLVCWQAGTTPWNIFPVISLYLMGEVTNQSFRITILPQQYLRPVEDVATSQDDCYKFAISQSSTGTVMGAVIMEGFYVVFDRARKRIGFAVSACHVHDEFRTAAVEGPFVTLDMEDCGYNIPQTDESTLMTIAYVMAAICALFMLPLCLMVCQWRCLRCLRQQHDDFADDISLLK

Take `COC(=O)CCCNC(=O)[C@H](OC(C)=O)[C@@H](OC(C)=O)C(=O)Nc1ccc(Oc2ccccc2)cc1` [Example 3, methyl L-(2R,3R)-4-[2,3-diacetoxy-3-(4-phenoxy-phenylcarbamoyl)-propionylamino]-butyrate]: the inhibition at 100 µM in data set [1] is 39%. Take `COC(=O)c1ccc(CNC(=O)[C@H](O)[C@@H](O)C(=O)NCc2ccccc2)cc1` [Example 8, methyl L-(2R,3R)-4-[(3-benzylcarbamoyl-2,3-dihydroxy-propionylamino)methyl]-benzoate]: the melting point lay within 205 to 206 °C.

Molecule `O=C(O)[C@H](Cc1ccccc1)NC(=O)[C@H](O)[C@@H](O)C(=O)NCc1ccccc1` [Example 10, L-(2R,3R)-2-(3-benzylcarbamoyl-2,3-dihydroxy-propionylamino)-3-phenyl-propionic acid] gave a melting point of 236 to 238 °C. Still for that read-out and setting: to `COC(=O)C1CCC(CNC(=O)[C@H](O)[C@@H](O)C(=O)NCc2ccccc2)CC1` (stereo partly drawn) [Example 11, methyl L-(2R,3R)-4-(3-benzylcarbamoyl-2,3-dihydroxy-propionylaminomethyl)-cyclohexanecarboxylate] belongs 153 to 154 °C; to `O=C(O)c1ccc(CNC(=O)[C@H](O)[C@@H](O)C(=O)NCc2ccccc2)cc1` [Example 12, L-(2R,3R)-4-[(3-benzylcarbamoyl-2,3-dihydroxy-propionylamino)methyl]-benzoic acid], 177 to 178 °C.

On to `COC(=O)CCCNC(=O)[C@H](O)[C@@H](O)C(=O)NCc1ccccc1` [Example 13, methyl L-(2R,3R)-4-(3-benzylcarbamoyl-2,3-dihydroxy-propionylamino)-butyrate], for which the melting point was in the range of 142 to 145 °C. `O=C(O)CCCNC(=O)[C@H](O)[C@@H](O)C(=O)NCc1ccccc1` [Example 14, L-(2R,3R)-4-(3-benzylcarbamoyl-2,3-dihydroxy-propionylamino)-butyric acid]: the melting point lay within 169 to 170 °C. Besides, in data set [1], the inhibition at 100 µM stood at 22.5%.

Turning to `O=C(O)C1CCC(CNC(=O)[C@H](O)[C@@H](O)C(=O)NCc2ccccc2)CC1` (stereo partly drawn) [Example 15, L-(2R,3R)-4-[(3-benzylcarbamoyl-2,3-dihydroxy-propionylamino)methyl]-cyclohexanecarboxylic acid], the melting point was in the range of 236 to 238 °C. Consider `COC(=O)c1cc(NC(=O)[C@H](O)[C@@H](O)C(=O)NCc2ccccc2)cc(C(=O)OC)c1` [Example 16, dimethyl L-(2R,3R)-5-(3-benzylcarbamoyl-2,3-dihydroxy-propionylamino)-isophthalate], for which the inhibition at 100 µM in data set [1] came to 26.5%. With `COC(=O)c1ccc(CNC(=O)[C@H](O)[C@@H](O)C(=O)Nc2ccc3ccccc3c2)cc1` [Example 17, methyl L-(2R,3R)-4-{[2,3-dihydroxy-3-(naphthyl-2-carbamoyl)-propionylamino]methyl}-benzoate], the inhibition at 100 µM in data set [1] came to 45.3%. In the case of `COC(=O)C1CCC(CNC(=O)[C@H](O)[C@@H](O)C(=O)Nc2ccc3ccccc3c2)CC1` (stereo partly drawn) [Example 18, methyl L-(2R,3R)-4-{[2,3-dihydroxy-3-(naphthyl-2-carbamoyl)-propionylamino]methyl}-cyclohexanecarboxylate], in data set [1], the inhibition at 100 µM stood at 22.3%. Still for that read-out and setting: to `COC(=O)[C@H](Cc1ccccc1)NC(=O)[C@H](O)[C@@H](O)C(=O)Nc1ccc2ccccc2c1` [Example 19, methyl L-(2R,3R)-2-[2,3-dihydroxy-3-(naphthalen-2-ylcarbamoyl)-propionylamino]-3-phenyl-propionate] belongs 35%.
